Data from US20070093969A1, “Molecular nephrotoxicology modeling” (priority 2002, published 2007).

Columns and labels:
[1] = system: kidney tissue gene expression; settings: rat, in vivo
[2] = system: kidney tissue; settings: in vivo; cited from earlier work

O=C(O)Cc1ccccc1Nc1c(Cl)cccc1Cl [diclofenac, Diclofenac]
Tox Group Mean, GLGC Identifier 67 [1]: 1551.30
Tox Group Mean, GLGC Identifier 665 [1]: 849.30
Tox Group Mean, GLGC Identifier 725 [1]: 33.60
Tox Group Mean, GLGC Identifier 1422 [1]: 174.39
Tox Group Mean, GLGC Identifier 1527 [1]: 51.23
Tox Group Mean, GLGC Identifier 1529 [1]: 194.31
Tox Group Mean, GLGC Identifier 1698 [1]: 190.91
Tox Group Mean, GLGC Identifier 1729 [1]: 81.89
Tox Group Mean, GLGC Identifier 1847 [1]: 22.26
Tox Group Mean, GLGC Identifier 1858 [1]: 253.42
Tox Group Mean, GLGC Identifier 1888 [1]: 101.45
Tox Group Mean, GLGC Identifier 1894 [1]: 294.35
Tox Group Mean, GLGC Identifier 2128 [1]: 97.35
Tox Group Mean, GLGC Identifier 3172 [1]: 36.28
Tox Group Mean, GLGC Identifier 3439 [1]: 135.79
Tox Group Mean, GLGC Identifier 3465 [1]: 152.39
Tox Group Mean, GLGC Identifier 4449 [1]: 156.15
Tox Group Mean, GLGC Identifier 4661 [1]: 555.94
Tox Group Mean, GLGC Identifier 5461 [1]: 694.84
Tox Group Mean, GLGC Identifier 5920 [1]: 1412.80
Tox Group Mean, GLGC Identifier 5930 [1]: 73.85
Tox Group Mean, GLGC Identifier 6014 [1]: 183.73
Tox Group Mean, GLGC Identifier 6046 [1]: 83.37
Tox Group Mean, GLGC Identifier 6278 [1]: 58.48
Tox Group Mean, GLGC Identifier 6758 [1]: 59.84
Tox Group Mean, GLGC Identifier 6782 [1]: 310.65
Tox Group Mean, GLGC Identifier 6796 [1]: 304.75
Tox Group Mean, GLGC Identifier 6917 [1]: 111.53
Tox Group Mean, GLGC Identifier 7299 [1]: 595.57
Tox Group Mean, GLGC Identifier 7540 [1]: 504.78
Tox Group Mean, GLGC Identifier 7872 [1]: 63.92
Tox Group Mean, GLGC Identifier 7936 [1]: 82.66
Tox Group Mean, GLGC Identifier 7937 [1]: 34.46
Tox Group Mean, GLGC Identifier 8065 [1]: 236.57
Tox Group Mean, GLGC Identifier 8099 [1]: 72.23
Tox Group Mean, GLGC Identifier 8104 [1]: 85.37
Tox Group Mean, GLGC Identifier 8234 [1]: 22.24
Tox Group Mean, GLGC Identifier 8759 [1]: 237.31
Tox Group Mean, GLGC Identifier 8820 [1]: 743.55
Tox Group Mean, GLGC Identifier 8850 [1]: 175.34
Tox Group Mean, GLGC Identifier 8888 [1]: 22.26
Tox Group Mean, GLGC Identifier 9079 [1]: 1099.28
Tox Group Mean, GLGC Identifier 9520 [1]: 69.60
Tox Group Mean, GLGC Identifier 10434 [1]: 77.07
Tox Group Mean, GLGC Identifier 11434 [1]: 181.39
Tox Group Mean, GLGC Identifier 11755 [1]: 343.83
Tox Group Mean, GLGC Identifier 12979 [1]: 742.50
Tox Group Mean, GLGC Identifier 13013 [1]: 32.49
Tox Group Mean, GLGC Identifier 13485 [1]: 38.32
Tox Group Mean, GLGC Identifier 13542 [1]: 321.75
Tox Group Mean, GLGC Identifier 13614 [1]: 497.29
Tox Group Mean, GLGC Identifier 13966 [1]: 227.19
Tox Group Mean, GLGC Identifier 14003 [1]: 1575.92
Tox Group Mean, GLGC Identifier 14346 [1]: 174.62
Tox Group Mean, GLGC Identifier 14450 [1]: 45.80
Tox Group Mean, GLGC Identifier 15017 [1]: 2241.27
Tox Group Mean, GLGC Identifier 15035 [1]: 23.84
Tox Group Mean, GLGC Identifier 15124 [1]: 1897.22
Tox Group Mean, GLGC Identifier 15125 [1]: 3102.06
Tox Group Mean, GLGC Identifier 15379 [1]: 33.32
Tox Group Mean, GLGC Identifier 15411 [1]: 552.53
Tox Group Mean, GLGC Identifier 15679 [1]: 309.12
Tox Group Mean, GLGC Identifier 15761 [1]: 22.22
Tox Group Mean, GLGC Identifier 15964 [1]: 487.88
Tox Group Mean, GLGC Identifier 16520 [1]: 174.46
Tox Group Mean, GLGC Identifier 16521 [1]: 453.74
Tox Group Mean, GLGC Identifier 16681 [1]: 134.46
Tox Group Mean, GLGC Identifier 16982 [1]: 1036.49
Tox Group Mean, GLGC Identifier 17541 [1]: 1839.84
Tox Group Mean, GLGC Identifier 18246 [1]: 100.99
Tox Group Mean, GLGC Identifier 19067 [1]: 76.83
Tox Group Mean, GLGC Identifier 20000 [1]: 24.08
Tox Group Mean, GLGC Identifier 20457 [1]: 235.87
Tox Group Mean, GLGC Identifier 20523 [1]: 1004.68
Tox Group Mean, GLGC Identifier 20864 [1]: 3112.64
Tox Group Mean, GLGC Identifier 21012 [1]: 445.05
Tox Group Mean, GLGC Identifier 21014 [1]: 352.43
Tox Group Mean, GLGC Identifier 21145 [1]: 76.23
Tox Group Mean, GLGC Identifier 21354 [1]: 640.85
Tox Group Mean, GLGC Identifier 21491 [1]: 67.51
Tox Group Mean, GLGC Identifier 22311 [1]: 1255.02
Tox Group Mean, GLGC Identifier 22321 [1]: 138.89
Tox Group Mean, GLGC Identifier 23987 [1]: 596.80
Tox Group Mean, GLGC Identifier 24232 [1]: 48.69
Tox Group Mean, GLGC Identifier 24566 [1]: 32.95
Tox Group Mean, GLGC Identifier 24568 [1]: 78.30
Tox Group Mean, GLGC Identifier 24893 [1]: 20.58
Tox Group Mean, GLGC Identifier 25106 [1]: 28.05
Tox Group Mean, GLGC Identifier 26083 [1]: 403.60
levels of BUN, malondialdehyde (MDA), SOD, and activated Ca2+-Mg2+-endonuclease [2]: elevated
